Test results from patent US10087187B2, “Imidazopyridazine derivatives as PI3KB inhibitors” (Janssen Pharmaceutica NV, priority 2014, dated 2018).

How the values were obtained:
PIK3Cα_h = PIK3Cα_h (Homo sapiens (Human), UniProt P42336); experiment: KINOMEscan enzyme binding assay, PIK3Cα; conditions: DiscoveRx
Description: (§1) Enzyme Binding Assays (KINOMEscan®) Kinase enzyme binding affinities of compounds disclosed herein were determined using the KINOMEscan technology performed by DiscoveRx Corporation, San Diego, Calif., USA (www.kinomescan.com).

PIK3Cβ_h = PIK3Cβ_h (Homo sapiens (Human), UniProt P42338); experiment: KINOMEscan enzyme binding assay, PIK3Cβ; conditions: DiscoveRx
Description: as §1, with “(www.kinomescan.com). Table A reports the obtained Kd values (nM), with the Kd being the inhibitor binding constant: […]” for “(www.kinomescan.com).”

PIK3Cδ_h = PIK3Cδ_h (Homo sapiens (Human), UniProt O00329); experiment: KINOMEscan enzyme binding assay, PIK3Cδ; conditions: DiscoveRx
Description: as §1, with “(www.kinomescan.com). Table A reports the obtained Kd values (nM), with the Kd being the inhibitor binding constant: […]” for “(www.kinomescan.com).”

PIK3Cγ_h = PIK3Cγ_h (Homo sapiens (Human), UniProt P48736); experiment: KINOMEscan enzyme binding assay, PIK3Cγ; conditions: DiscoveRx
Description: as §1

MTOR_h = MTOR_h (Homo sapiens (Human), UniProt P42345); experiment: KINOMEscan enzyme binding assay, MTOR; conditions: DiscoveRx
Description: as §1

[1] = tested on: Akt phosphorylated at Ser473 in PC-3 cells; experiment: Cellular assay: phosphorylation of Akt (Ser473) in PC-3 cells, MSD ELISA; type: cell-based; conditions: Homo sapiens, PC-3, 1 h, 60 min incubation with compound, read-out: IC50 pAkt_S473
Description: (§2) Cellular activity of PI3Kβ inhibitors was determined by quantifying the phosphorylation of Akt in PC-3 cells. Akt phosphorylated at Ser473 and Thr308 were measured using an enzyme-linked immunosorbent assay (ELISA; Meso Scale Discovery (MSD), Gaithersburg, Md.) and specific primary antibodies from MSD.
(§3) On day 1, PC3 cells (ATCC # […]) were seeded into PerkinElmer MW96 plates at 25.000 cells per well, in 75 μl complete culture medium (DMEM (Dulbecco's Modified Eagle's Medium) high glucose, AQmedia™, D0819, Sigma-Aldrich) containing 10% heat inactivated FCS (Fetal Bovine Serum) and incubated at 37° C., 5% CO2 during 24 hours. On day 2, compound or DMSO (dimethyl sulfoxide) (0.3%) was added and cells were further incubated for 60 min at 37° C., 5% CO2 in a total volume of 100 μl of medium.
(§4) The phosphoprotein assay was executed according to vendor instructions in the Phospho-Akt (Ser473) Assay Whole Cell Lysate Kit (MSD # K15100D-3) and the Phospho-Akt (Thr308) Assay Whole Cell Lysate Kit (MSD # K151DYD-3) using the lysis, blocking and wash buffer provided.
(§5) Briefly, at the end of the cell treatment period, media were removed by aspiration and adherent cells were lysed in 50 μl ice-cold lysis buffer. MSD plates are supplied pre-coated with capture antibodies for Phospho-Akt (Ser473 and Thr308). After blocking, lysates from tissue culture plates were added and plates were washed. Then, a solution containing the detection antibody (anti-total Akt conjugated with an electrochemiluminescent compound-MSD Sulfo-tag label) was added. The signals were detected using an MSD SECTOR Imager 6000 and are proportional to the phospho-Akt titres.
(§6) Data were processed. The percentage of inhibition was plotted against the log concentration of test compounds, and the sigmoidal log concentration-effect curve of best fit was calculated by nonlinear regression analysis. From these concentration-response curves, the IC50 values were calculated. Five concentrations were used for curve fitting.

[2] = tested on: Akt phosphorylated at Thr308 in PC-3 cells; experiment: Cellular assay: phosphorylation of Akt (Thr308) in PC-3 cells, MSD ELISA; type: cell-based; conditions: Homo sapiens, PC-3, 1 h, 60 min incubation with compound, read-out: IC50 pAkt_Thr308
Description: as §2, §3, §4, §5, §6

Sequence of PIK3Cα_h (P42336 whole entry): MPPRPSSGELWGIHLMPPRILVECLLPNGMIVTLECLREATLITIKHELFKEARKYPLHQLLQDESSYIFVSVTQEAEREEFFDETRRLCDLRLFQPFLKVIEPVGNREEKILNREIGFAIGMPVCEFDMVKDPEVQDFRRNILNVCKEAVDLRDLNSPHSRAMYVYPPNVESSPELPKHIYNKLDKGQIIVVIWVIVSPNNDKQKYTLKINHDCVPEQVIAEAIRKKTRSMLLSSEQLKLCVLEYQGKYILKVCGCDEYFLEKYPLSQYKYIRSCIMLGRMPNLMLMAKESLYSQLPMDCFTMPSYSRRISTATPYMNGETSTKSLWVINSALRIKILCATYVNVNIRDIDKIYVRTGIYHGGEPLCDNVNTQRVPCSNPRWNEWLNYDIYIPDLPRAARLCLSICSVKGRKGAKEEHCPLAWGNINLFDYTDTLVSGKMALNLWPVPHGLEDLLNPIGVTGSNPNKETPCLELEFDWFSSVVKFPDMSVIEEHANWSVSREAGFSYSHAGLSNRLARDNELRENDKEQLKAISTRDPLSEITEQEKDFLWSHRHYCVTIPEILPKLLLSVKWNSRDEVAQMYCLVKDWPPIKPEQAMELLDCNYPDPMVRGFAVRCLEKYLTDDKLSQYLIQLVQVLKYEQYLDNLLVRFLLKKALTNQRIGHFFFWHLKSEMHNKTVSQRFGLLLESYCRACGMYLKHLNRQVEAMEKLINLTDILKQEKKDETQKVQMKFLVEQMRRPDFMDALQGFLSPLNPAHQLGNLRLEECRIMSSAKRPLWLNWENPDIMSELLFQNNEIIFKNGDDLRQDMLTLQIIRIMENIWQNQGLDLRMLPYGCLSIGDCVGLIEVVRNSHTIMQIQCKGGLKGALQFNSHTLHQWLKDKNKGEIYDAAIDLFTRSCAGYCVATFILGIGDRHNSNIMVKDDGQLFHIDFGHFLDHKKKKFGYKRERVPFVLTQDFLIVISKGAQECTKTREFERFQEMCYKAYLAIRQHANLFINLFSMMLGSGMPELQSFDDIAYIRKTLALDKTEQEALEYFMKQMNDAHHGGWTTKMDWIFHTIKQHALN
Sequence of PIK3Cδ_h (O00329 whole entry): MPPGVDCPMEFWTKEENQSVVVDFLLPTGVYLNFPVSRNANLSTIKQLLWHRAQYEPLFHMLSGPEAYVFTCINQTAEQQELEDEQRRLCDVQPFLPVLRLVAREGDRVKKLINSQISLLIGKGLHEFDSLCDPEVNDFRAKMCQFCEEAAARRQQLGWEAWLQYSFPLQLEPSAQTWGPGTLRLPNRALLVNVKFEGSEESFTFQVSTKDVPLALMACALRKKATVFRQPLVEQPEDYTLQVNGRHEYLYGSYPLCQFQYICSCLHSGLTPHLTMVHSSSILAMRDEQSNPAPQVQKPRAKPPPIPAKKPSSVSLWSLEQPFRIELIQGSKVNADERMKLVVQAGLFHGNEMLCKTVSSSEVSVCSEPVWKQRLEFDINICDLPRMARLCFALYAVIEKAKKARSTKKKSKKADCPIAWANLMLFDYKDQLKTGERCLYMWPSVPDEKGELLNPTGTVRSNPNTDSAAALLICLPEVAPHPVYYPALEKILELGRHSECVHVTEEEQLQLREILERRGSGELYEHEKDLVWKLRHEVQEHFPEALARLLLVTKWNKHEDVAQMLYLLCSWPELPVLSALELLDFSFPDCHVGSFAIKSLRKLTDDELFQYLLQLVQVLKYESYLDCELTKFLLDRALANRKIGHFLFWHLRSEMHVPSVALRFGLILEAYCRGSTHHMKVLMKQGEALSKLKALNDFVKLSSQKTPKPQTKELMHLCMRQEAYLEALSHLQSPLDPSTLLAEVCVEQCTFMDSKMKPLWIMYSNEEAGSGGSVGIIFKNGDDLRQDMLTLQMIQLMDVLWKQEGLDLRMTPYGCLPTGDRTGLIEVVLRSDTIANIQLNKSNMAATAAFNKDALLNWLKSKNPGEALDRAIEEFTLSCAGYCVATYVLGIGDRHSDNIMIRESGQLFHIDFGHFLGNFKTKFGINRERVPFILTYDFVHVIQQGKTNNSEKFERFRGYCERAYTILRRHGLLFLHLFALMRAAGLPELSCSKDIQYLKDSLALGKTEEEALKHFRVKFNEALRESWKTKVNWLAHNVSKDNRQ
Sequence of PIK3Cβ_h (P42338 whole entry): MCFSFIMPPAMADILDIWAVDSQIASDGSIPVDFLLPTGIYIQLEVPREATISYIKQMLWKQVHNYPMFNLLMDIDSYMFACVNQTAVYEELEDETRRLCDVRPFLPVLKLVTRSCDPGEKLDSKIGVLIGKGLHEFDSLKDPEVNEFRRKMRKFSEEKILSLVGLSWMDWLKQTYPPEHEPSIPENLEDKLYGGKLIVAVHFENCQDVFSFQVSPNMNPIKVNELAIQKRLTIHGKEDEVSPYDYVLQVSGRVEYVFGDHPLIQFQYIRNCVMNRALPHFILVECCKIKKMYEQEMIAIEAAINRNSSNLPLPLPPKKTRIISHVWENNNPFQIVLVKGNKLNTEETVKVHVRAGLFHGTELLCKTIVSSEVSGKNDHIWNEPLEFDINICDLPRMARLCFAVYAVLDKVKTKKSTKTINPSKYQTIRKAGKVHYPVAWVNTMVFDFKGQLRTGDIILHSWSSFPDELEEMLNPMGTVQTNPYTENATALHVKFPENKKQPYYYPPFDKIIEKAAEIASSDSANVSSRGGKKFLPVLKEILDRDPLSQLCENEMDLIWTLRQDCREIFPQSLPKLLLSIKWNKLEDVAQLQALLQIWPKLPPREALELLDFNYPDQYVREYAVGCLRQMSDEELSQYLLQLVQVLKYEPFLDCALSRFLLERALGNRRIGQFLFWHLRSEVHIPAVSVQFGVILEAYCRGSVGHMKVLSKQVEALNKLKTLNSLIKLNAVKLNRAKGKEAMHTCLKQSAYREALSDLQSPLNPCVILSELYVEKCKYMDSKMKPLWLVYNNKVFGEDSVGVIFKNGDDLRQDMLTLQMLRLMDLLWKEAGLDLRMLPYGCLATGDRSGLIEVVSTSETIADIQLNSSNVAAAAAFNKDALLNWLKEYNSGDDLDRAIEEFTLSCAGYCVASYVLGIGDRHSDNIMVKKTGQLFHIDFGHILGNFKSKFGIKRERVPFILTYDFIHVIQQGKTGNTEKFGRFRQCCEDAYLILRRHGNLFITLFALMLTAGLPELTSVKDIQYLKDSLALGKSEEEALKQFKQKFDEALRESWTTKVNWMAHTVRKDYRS
Sequence of PIK3Cγ_h (P48736 whole entry): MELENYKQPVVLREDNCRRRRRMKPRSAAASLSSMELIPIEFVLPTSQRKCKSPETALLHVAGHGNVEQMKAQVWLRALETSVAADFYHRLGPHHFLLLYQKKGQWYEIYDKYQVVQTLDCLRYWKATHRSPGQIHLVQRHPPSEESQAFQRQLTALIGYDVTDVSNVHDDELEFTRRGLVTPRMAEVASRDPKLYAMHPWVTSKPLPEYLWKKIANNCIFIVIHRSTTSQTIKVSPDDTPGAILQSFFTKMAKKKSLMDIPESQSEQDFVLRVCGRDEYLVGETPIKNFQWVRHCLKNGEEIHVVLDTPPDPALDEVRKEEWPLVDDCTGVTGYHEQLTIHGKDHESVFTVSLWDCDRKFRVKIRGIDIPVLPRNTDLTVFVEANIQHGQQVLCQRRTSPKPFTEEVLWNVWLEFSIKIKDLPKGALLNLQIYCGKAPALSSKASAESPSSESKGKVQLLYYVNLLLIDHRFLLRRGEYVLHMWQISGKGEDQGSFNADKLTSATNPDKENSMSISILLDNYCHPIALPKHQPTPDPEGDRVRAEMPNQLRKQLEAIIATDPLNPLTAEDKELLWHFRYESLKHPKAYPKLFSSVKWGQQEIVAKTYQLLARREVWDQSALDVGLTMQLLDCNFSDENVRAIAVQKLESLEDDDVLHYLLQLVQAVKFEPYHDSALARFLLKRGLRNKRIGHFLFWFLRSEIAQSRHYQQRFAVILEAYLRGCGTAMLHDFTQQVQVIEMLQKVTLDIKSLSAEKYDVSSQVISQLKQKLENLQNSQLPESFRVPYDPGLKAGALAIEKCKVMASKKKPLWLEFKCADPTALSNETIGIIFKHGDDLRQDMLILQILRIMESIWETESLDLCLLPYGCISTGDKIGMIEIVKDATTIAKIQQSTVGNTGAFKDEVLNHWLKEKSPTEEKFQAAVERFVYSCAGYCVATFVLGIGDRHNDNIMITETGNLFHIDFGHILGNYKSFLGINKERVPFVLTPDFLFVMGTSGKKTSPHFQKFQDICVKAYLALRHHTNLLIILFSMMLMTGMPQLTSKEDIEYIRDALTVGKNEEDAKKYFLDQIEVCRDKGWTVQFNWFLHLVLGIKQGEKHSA

| SMILES | Kd (PIK3Cα_h) | Kd (PIK3Cβ_h) | Kd (PIK3Cδ_h) | Kd (PIK3Cγ_h) | Kd (MTOR_h) | IC50 [1] | IC50 [2] |
| --- | --- | --- | --- | --- | --- | --- | --- |
| Cc1nc2c(-c3ncc[nH]3)cc(N3CCOCC3)nn2c1Nc1cccc(C(F)(F)F)c1C [Compound 34] | 2240 nM | 3 nM | 81 nM | 6920 nM | > 10000 nM | ~56 nM | ~32 nM |
| Cc1nc2c(C(=O)O)cc(N3CCOCC3)nn2c1Nc1cccc(C(F)(F)F)c1C [Compound 36] | 669 nM | 0.9 nM | 58 nM | 4050 nM | 21700 nM | ~331 nM | 195 nM |
| Cc1c(Nc2c(CO)nc3c(C(N)=O)cc(N4CCOCC4)nn23)cccc1C(F)(F)F [Compound 37] | 575 nM | 2.2 nM | 214 nM | 759 nM | 3240 nM | 11 nM | 20 nM |
| Cc1nc2c(N)cc(N3CCOCC3)nn2c1Nc1cccc(C(F)(F)F)c1CN1CCOCC1 [Compound 38] | 4050 nM | 4 nM | 15 nM | 12900 nM | 9370 nM | 18 nM | 10 nM |
| Cc1cccc(Nc2c(C)nc3c(N)cc(N4CCOCC4)nn23)c1C [Compound 39] | 2570 nM | 1.1 nM | 31 nM | 8510 nM | 4900 nM | 34 nM | ~43 nM |
| Cc1nc2c(C(N)=O)cc(N3CCOCC3)nn2c1Nc1cccc(C(F)(F)F)c1C [Compound 40] | 2040 nM | 4 nM | 372 nM | 3900 nM | 20100 nM | 105 nM | 60 nM |
| Cc1nc2c(-c3cnc[nH]3)cc(N3CCOCC3)nn2c1Nc1cccc(C(F)(F)F)c1CN1CCOCC1 [Compound 41] | 275 nM | 7 nM | 12 nM | 955 nM | 1700 nM | ~37 nM | 22 nM |
| Cc1nc2c(-c3cnc[nH]3)cc(N3CCOCC3)nn2c1Nc1cccc2c1CNCC2 [Compound 42] | 347 nM | 0.6 nM | 5 nM | 2290 nM | 1440 nM | > 513 nM | > 513 nM |
| Cc1nc2c(N)cc(N3CCOCC3)nn2c1Nc1cccc(C(F)(F)F)c1CN1CCS(=O)(=O)CC1 [Compound 43] | 3310 nM | 2 nM | 47 nM | 7760 nM | > 30200 nM | ~339 nM | 170 nM |
| Cc1nc2c(N)cc(N3CCOCC3)nn2c1Nc1cccc(F)c1C [Compound 44] | 9330 nM | 1.5 nM | 105 nM | 14800 nM | 5370 nM | 34 nM | ~11 nM |
| Cc1nc2c(-c3cnc[nH]3)cc(N3CCOCC3)nn2c1Nc1cccc(C(F)(F)F)c1CN1CC(O)C1 [Compound 46] | 661 nM | 3 nM | 11 nM | 741 nM | 1230 nM | 174 nM | 17 nM |
| Cc1nc2c(N)cc(N3CCOCC3)nn2c1Nc1cccc(C(F)(F)F)c1CN1CCC(S(C)(=O)=O)C1 (centres unmarked) [Compound 47] | 10500 nM | 2.5 nM | 47 nM | 20900 nM | > 30200 nM | 59 nM | 44 nM |
| Cc1nc2c(N)cc(N3CCOCC3)nn2c1Nc1cccc(C(F)(F)F)c1CN1CC(S(C)(=O)=O)C1 [Compound 48] | 2750 nM | 1.7 nM | 34 nM | 6170 nM | > 30200 nM | 98 nM | 55 nM |
| Cc1nc2c(N)cc(N3CCOCC3)nn2c1Nc1cccc(C(F)(F)F)c1CN1CCC2(C1)CS(=O)(=O)C2 [Compound 49] | 13500 nM | 9 nM | 331 nM | > 30200 nM | > 30200 nM | 45 nM | ~21 nM |
